In ChEMBL document CHEMBL1129561 (J Med Chem, 1996):

These molecules were tested against T1, Progesterone receptor (Homo sapiens) (UniProt P06401). Conditions: CV-1.
T1 sequence (whole entry): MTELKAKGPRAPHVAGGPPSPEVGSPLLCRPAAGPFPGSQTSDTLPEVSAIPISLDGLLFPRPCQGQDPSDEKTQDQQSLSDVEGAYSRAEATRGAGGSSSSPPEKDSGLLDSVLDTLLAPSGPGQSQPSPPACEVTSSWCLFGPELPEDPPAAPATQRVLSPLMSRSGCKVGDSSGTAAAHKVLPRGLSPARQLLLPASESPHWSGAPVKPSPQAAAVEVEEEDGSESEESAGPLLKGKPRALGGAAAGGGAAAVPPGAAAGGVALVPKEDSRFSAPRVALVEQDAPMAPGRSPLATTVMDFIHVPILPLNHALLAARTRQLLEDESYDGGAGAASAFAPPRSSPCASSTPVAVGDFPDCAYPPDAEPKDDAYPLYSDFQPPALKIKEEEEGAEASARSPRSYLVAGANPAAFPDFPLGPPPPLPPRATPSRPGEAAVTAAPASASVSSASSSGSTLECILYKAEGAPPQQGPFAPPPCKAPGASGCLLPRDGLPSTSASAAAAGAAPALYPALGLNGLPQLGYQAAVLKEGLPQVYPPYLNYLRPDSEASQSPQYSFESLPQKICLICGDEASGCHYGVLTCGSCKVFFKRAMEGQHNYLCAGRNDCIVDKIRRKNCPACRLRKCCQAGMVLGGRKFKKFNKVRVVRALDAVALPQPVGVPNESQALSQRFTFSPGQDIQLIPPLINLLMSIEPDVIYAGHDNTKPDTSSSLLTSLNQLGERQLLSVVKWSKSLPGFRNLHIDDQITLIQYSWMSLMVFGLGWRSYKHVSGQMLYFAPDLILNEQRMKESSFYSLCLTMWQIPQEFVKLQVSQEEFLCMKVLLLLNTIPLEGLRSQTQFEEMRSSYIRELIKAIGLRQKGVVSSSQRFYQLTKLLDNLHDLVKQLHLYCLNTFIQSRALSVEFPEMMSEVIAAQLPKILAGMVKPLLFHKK
`C=C1CCCC(C)(C)[C@@H]1Cc1cc(OC)c(Br)cc1O` gave a Max inhibition of 45%.
`C=C1C=C(C)CC(C)(C)C1Sc1ccc([N+](=O)[O-])cc1` (stereo not given) gave a Max inhibition of 44%.
`COc1cc(CC2C(C)(C)CC(C)=CC23CC3)c(OC(C)=O)cc1Br` (stereo not given) gave a Max inhibition of 26%.
Work on `C=C1C=C(C)CC(C)(C)C1Cc1ccc2nonc2c1` (stereo not given) yielded a Max inhibition of 72%.
In the case of `C=C1CCCC(C)(C)C1Cc1cc(OC)c(Br)cc1O` (stereo not given), the Max inhibition is reported as 55%.
`C=C1C[C@H](CO)CC(C)(C)[C@@H]1Cc1cc(OC)c(Br)cc1O` showed a Max inhibition of 87%.

What follows are molecules tested against T2, Androgen receptor (Homo sapiens, UniProt P10275). Conditions: not given.
T2 sequence (P10275 whole entry): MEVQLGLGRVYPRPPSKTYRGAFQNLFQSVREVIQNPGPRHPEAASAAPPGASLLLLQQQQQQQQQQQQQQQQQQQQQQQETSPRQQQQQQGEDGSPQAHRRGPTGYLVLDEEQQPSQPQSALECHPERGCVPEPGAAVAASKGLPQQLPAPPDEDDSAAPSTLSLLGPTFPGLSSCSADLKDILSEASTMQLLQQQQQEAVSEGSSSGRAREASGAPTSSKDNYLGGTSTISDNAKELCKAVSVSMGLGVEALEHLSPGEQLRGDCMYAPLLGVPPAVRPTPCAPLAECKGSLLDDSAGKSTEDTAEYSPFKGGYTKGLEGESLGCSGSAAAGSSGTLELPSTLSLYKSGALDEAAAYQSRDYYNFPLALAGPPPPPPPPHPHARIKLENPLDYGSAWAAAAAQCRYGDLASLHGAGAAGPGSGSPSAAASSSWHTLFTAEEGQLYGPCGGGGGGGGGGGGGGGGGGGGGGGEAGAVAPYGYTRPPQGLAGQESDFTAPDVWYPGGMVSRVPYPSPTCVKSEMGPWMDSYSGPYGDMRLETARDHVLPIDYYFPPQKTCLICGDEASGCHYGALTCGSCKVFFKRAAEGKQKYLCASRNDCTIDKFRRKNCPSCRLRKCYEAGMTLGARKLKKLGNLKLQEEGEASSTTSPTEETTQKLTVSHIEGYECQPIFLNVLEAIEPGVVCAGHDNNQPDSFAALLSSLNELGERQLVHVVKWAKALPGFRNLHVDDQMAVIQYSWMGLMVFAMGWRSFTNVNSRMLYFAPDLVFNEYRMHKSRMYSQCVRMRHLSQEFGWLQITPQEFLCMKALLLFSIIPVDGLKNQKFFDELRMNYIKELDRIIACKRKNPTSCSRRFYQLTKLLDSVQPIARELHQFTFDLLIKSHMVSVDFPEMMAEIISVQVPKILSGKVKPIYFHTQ
`C=C1C=C(C)CC(C)(C)C1Sc1ccc([N+](=O)[O-])cc1` (stereo not given) was tested, and the Ki was over 10000 nM.
Molecule `COc1cc(CC2C(C)(C)CC(C)=CC23CC3)c(OC(C)=O)cc1Br` (stereo not given) has a Ki of 3010 nM.
`C=C1C=C(C)CC(C)(C)C1Cc1ccc2nonc2c1` (stereo not given) showed a Ki of over 10000 nM.
`C=C1C[C@H](CO)CC(C)(C)[C@@H]1Cc1cc(OC)c(Br)cc1O` was tested, and the Ki was 6810 nM.

These molecules were tested against T3, Progesterone receptor (Homo sapiens, UniProt P06401). Conditions: not given.
T3 sequence (P06401 whole entry): T1 sequence (whole entry)
`C=C1CCCC(C)(C)[C@@H]1Cc1cc(OC)c(Br)cc1O` was tested, and the IC50 was 597 nM.
Molecule `COc1cc(CC2C(C)(C)CC(C)=CC23CC3)c(OC(C)=O)cc1Br` (stereo not given) has an IC50 of 160 nM.
With `C=C1C=C(C)CC(C)(C)C1Cc1ccc2nonc2c1` (stereo not given) the IC50 was 1950 nM.
`C=C1CCCC(C)(C)C1Cc1cc(OC)c(Br)cc1O` (stereo not given) was tested, and the IC50 was 405 nM.
For `C=C1C[C@H](CO)CC(C)(C)[C@@H]1Cc1cc(OC)c(Br)cc1O`, the IC50 was 3300 nM.

Biological target: T3, Progesterone receptor
Conditions: not given
Remark: another data set of the same source
Molecule `C=C1CCCC(C)(C)[C@@H]1Cc1cc(OC)c(Br)cc1O` has an EC50 of 3260 nM.
`COc1cc(CC2C(C)(C)CC(C)=CC23CC3)c(OC(C)=O)cc1Br` (stereo not given) gave an EC50 of 2120 nM.
`C=C1CCCC(C)(C)C1Cc1cc(OC)c(Br)cc1O` (stereo not given) gave an EC50 of 4020 nM.

Biological target: T3, Progesterone receptor
Conditions: not given
Remark: another data set of the same source
With `C=C1CCCC(C)(C)[C@@H]1Cc1cc(OC)c(Br)cc1O` the IC50 was 290 nM.
Work on `COc1cc(CC2C(C)(C)CC(C)=CC23CC3)c(OC(C)=O)cc1Br` (stereo not given) yielded an IC50 of 440 nM.
`C=C1C=C(C)CC(C)(C)C1Cc1ccc2nonc2c1` (stereo not given) showed an IC50 of 775 nM.
For `C=C1CCCC(C)(C)C1Cc1cc(OC)c(Br)cc1O` (stereo not given), the IC50 was 163 nM.
`C=C1C[C@H](CO)CC(C)(C)[C@@H]1Cc1cc(OC)c(Br)cc1O` was tested, and the IC50 was 2000 nM.

Biological target: T3, Progesterone receptor
Conditions: not given
Remark: another data set of the same source
For `C=C1CCCC(C)(C)[C@@H]1Cc1cc(OC)c(Br)cc1O`, the Ki was 34 nM.
For `COc1cc(CC2C(C)(C)CC(C)=CC23CC3)c(OC(C)=O)cc1Br` (stereo not given), the Ki was 98 nM.
With `C=C1C=C(C)CC(C)(C)C1Cc1ccc2nonc2c1` (stereo not given) the Ki was 88 nM.
Molecule `C=C1CCCC(C)(C)C1Cc1cc(OC)c(Br)cc1O` (stereo not given) has a Ki of 77 nM.
For `C=C1C[C@H](CO)CC(C)(C)[C@@H]1Cc1cc(OC)c(Br)cc1O`, the Ki was 3250 nM.

These molecules were tested against T4, Glucocorticoid receptor (Homo sapiens, UniProt P04150). Conditions: not given.
T4 sequence (P04150 whole entry): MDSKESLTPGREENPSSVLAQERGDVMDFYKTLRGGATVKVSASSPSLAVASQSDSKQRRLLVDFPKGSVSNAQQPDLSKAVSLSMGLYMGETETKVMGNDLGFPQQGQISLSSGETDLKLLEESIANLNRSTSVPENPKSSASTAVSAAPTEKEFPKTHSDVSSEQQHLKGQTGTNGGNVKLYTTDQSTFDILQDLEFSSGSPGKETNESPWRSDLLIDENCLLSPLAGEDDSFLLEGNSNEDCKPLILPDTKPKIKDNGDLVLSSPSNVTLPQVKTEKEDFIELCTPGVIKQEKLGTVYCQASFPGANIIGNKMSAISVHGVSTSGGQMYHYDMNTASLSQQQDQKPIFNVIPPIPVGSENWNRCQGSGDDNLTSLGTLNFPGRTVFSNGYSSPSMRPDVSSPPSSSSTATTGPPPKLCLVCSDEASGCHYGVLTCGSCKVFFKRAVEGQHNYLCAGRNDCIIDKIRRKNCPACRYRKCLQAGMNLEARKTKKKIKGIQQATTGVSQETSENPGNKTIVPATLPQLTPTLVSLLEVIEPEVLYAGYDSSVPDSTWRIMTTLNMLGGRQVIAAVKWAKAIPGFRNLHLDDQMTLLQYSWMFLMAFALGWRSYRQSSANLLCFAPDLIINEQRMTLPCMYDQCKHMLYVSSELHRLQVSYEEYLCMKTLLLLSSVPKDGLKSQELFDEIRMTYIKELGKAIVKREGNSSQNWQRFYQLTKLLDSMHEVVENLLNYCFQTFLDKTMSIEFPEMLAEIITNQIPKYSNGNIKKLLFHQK
`C=C1CCCC(C)(C)[C@@H]1Cc1cc(OC)c(Br)cc1O` was tested, and the Ki was 1780 nM.
`C=C1C=C(C)CC(C)(C)C1Sc1ccc([N+](=O)[O-])cc1` (stereo not given) was tested, and the Ki was 8220 nM.
With `COc1cc(CC2C(C)(C)CC(C)=CC23CC3)c(OC(C)=O)cc1Br` (stereo not given) the Ki was 2570 nM.
Molecule `C=C1C=C(C)CC(C)(C)C1Cc1ccc2nonc2c1` (stereo not given) has a Ki of 8360 nM.
With `C=C1CCCC(C)(C)C1Cc1cc(OC)c(Br)cc1O` (stereo not given) the Ki was 2210 nM.
`C=C1C[C@H](CO)CC(C)(C)[C@@H]1Cc1cc(OC)c(Br)cc1O` was tested, and the Ki was 6390 nM.

Biological target: T1, Progesterone receptor (Homo sapiens)
Conditions: CV-1
Remark: another data set of the same source
For `C=C1C[C@H](CO)CC(C)(C)[C@@H]1Cc1cc(OC)c(Br)cc1O`, the Max inhibition was 87%.
